{
  "source": "patent US20240207206A1",
  "about": "“Improved Topical Composition of Colchicine” (Zenvision Pharma LLP, priority 2019, published 2024)",
  "origin": "cited, not measured here",
  "settings": "in water",
  "data": [
    {"smiles": "COc1cc2c(c(OC)c1OC)-c1ccc(OC)c(=O)cc1[C@@H](NC(C)=O)CC2", "note": "[Colchicine, (S)N-(5,6,7,9-tetrahydro-1,2,3, 10-tetramethoxy-9-oxobenzo[alpha]heptalen-7-yl) acetamide]", "values": [
      {"measurement": "Solubility", "result": "soluble in water"}
    ]}
  ]
}
